The text below walks through data of patent US11116727B2, “Preparation containing 6,7-unsaturated-7-carbamoyl morphinan derivatives” (Shionogi & Co., Ltd., priority 2012, dated 2021).

The nature of the data set: Water solubility of the p-toluenesulfonic acid salt at different pH. It is filed as physicochemical. How it is done: The water solubility of p-toluenesulfonic acid salt of the compound represented by the above formula (IA), namely 17-(cyclopropylmethyl)-6,7-didehydro-4,5α-epoxy-3,6,14-trihydroxy-N-[2-(3-phenyl-1,2,4-oxadiazol-5-yl) propan-2-yl]morphinan-7-carboxamide 4-methylbenzene sulfonic acid is more than 1,000 μg/mL in pH 1 or 4, but the water solubility in pH 7 decreases than the solubility in pH 1 or 4.

The solubility is how much of the substance goes into solution per volume. In the case of `CC(C)(NC(=O)C1=C(O)[C@@H]2Oc3c(O)ccc4c3[C@@]23CCN(CC2CC2)[C@H](C4)[C@]3(O)C1)c1nc(-c2ccccc2)no1` [17-(cyclopropylmethyl)-6,7-didehydro-4,5α-epoxy-3,6,14-trihydroxy-N-[2-(3-phenyl-1,2,4-oxadiazol-5-yl)propan-2-yl]morphinan-7-carboxamide 4-methylbenzenesulfonic acid], the water solubility entry (pH 7, compared with pH 1 or 4) is “decreases”. In addition, the solubility (water, simulated gastric fluid, pH 1 or 4) was more than 1000 µg/mL.
